Data reported in publication PMC6358866 (International Journal of Molecular Sciences, 2019).

Assays:
[1] = system: Staphylococcus epidermidis ATCC 14990 biofilm; test: Activity against biofilms on 96-well plates after withdrawal of the antimicrobial (additional 24 h in MHB II); format: cell-based; settings: after withdrawal and additional 24 h in MHB II; for MBEC II 50: lowest concentration giving permanent reduction of metabolic activity by at least 50 ± 5%; for MBEC II 90: lowest concentration giving permanent reduction of metabolic activity by at least 90 ± 5%
Procedure: (§1) Bacterial strains were obtained from the Polish Collection of Microorganisms (Polish Academy of Science, Wroclaw, Poland). Three Gram-positive and two Gram-negative strains linked with CL-related infections were chosen for the study (Staphylococus aureus ATCC 6538, Staphylococcus epidermidis ATCC 14990, Pseudomonas aeruginosa ATCC 9027, Escherichia coli ATCC 25922, and Enterococcus faecalis ATCC 29212). The bacteria were cultured in a Mueller Hinton Broth II (MHB, Biocorp, Warsaw, Poland) overnight, under aerobic conditions at 37 °C. […] Bacterial suspensions were added to 96-well plates (Kartell, Noviglio, Italy) at initial inoculums of ca. 5 × 10^8 CFU/mL and incubated under aerobic conditions with shaking (120 rpm) at 37 °C for 24 h. […] After exposure, the wells were washed three times with PBS and a solution of resazurin (Sigma Aldrich, St. […] This cell viability reagent is metabolized by bacterial dehydrogenases upon contact with living cells. As a result, the blue dye is reduced to a pink resorufin. After 1.5 h of incubation, the absorbance was measured at 570 and 600 nm using a microplate reader (Thermo Fisher Scientific, Waltham, MA, USA). […] The procedure was conducted as described in Section 4.3, with the difference that after exposure to antimicrobials, the wells were washed three times with PBS and pure MHB II was added. The samples were incubated for another 24 h (aerobic conditions, 120 rpm shaking, 37 °C). […] The absorbance was measured at the same wave lengths and metabolic activity was calculated according to the formula given in Section 4.3. The presented results are means of nine results obtained on three different days.

[2] = system: Escherichia coli ATCC 25922 biofilm; test: as above; format: cell-based; settings: after withdrawal and additional 24 h in MHB II
Procedure: as §1

[3] = system: Pseudomonas aeruginosa ATCC 9027 biofilm; test: as above; format: cell-based; settings: for effect of pretreatment on biofilm after withdrawal: PA biofilm on polystyrene, concentrations lower than 32 mg/L, after withdrawal and additional 24 h
Procedure: as §1

[4] = system: Enterococcus faecalis ATCC 29212 biofilm; test: as above; format: cell-based; settings: after withdrawal and additional 24 h in MHB II
Procedure: as §1

[5] = system: Staphylococus aureus ATCC 6538 biofilm; test: as above; format: cell-based, Staphylococcus aureus; settings: after withdrawal and additional 24 h in MHB II; for MBEC II 50: lowest concentration giving permanent reduction of metabolic activity by at least 50 ± 5%; for MBEC II 90: lowest concentration giving permanent reduction of metabolic activity by at least 90 ± 5%
Procedure: as §1

[6] = system: Staphylococcus epidermidis ATCC 14990 biofilm; test: Activity against biofilms formed on polystyrene 96-well plates, 24 h exposure, resazurin; format: cell-based; settings: for MBEC 50: lowest concentration reducing metabolic activity by at least 50 ± 5%; for MBEC 50 / MBEC 90: polystyrene plate, 24 h exposure in MHB II, resazurin; for MBEC 90: lowest concentration reducing metabolic activity by at least 90 ± 5%, mean of nine results
Procedure: (§2) Bacterial strains were obtained from the Polish Collection of Microorganisms (Polish Academy of Science, Wroclaw, Poland). […] The bacteria were cultured in a Mueller Hinton Broth II (MHB, Biocorp, Warsaw, Poland) overnight, under aerobic conditions at 37 °C. After incubation, the liquid cultures were centrifuged (2500 rpm for 10 min) and washed with phosphoric buffer (PBS, AppliChem, Darmstadt, Germany) three times and resuspended in fresh MHB II for inoculums appropriate for the performed assays.
(§3) Bacterial suspensions were added to 96-well plates (Kartell, Noviglio, Italy) at initial inoculums of ca. 5 × 10^8 CFU/mL and incubated under aerobic conditions with shaking (120 rpm) at 37 °C for 24 h. […] After exposure, the wells were washed three times with PBS and a solution of resazurin (Sigma Aldrich, St. Louis, MO, USA) in MHB II (0.01%) was added. This cell viability reagent is metabolized by bacterial dehydrogenases upon contact with living cells. As a result, the blue dye is reduced to a pink resorufin. After 1.5 h of incubation, the absorbance was measured at 570 and 600 nm using a microplate reader (Thermo Fisher Scientific, Waltham, MA, USA). […] The metabolic activity of bacteria in the samples was measured according to the following formula:
(§4) Metabolic activity (%) = (ΔAbs of sample − ΔAbs of negative control)/(ΔAbs of positive control − ΔAbs of negative control);
(§5) ΔAbs = absorbance at 570 nm − absorbance at 600 nm;
(§6) The presented results are the means of nine results obtained on three different days.

[7] = system: Escherichia coli ATCC 25922 biofilm; test: as above; format: cell-based; settings: polystyrene plate, 24 h exposure in MHB II; for MBEC 50: lowest concentration reducing metabolic activity by at least 50 ± 5%
Procedure: as §2, §3, §4, §5, §6

[8] = system: Pseudomonas aeruginosa ATCC 9027 biofilm; test: as above; format: cell-based; settings: for MBEC 50: lowest concentration reducing metabolic activity by at least 50 ± 5%; for MBEC 50 / MBEC 90: polystyrene plate, 24 h exposure in MHB II, resazurin; for MBEC 90: lowest concentration reducing metabolic activity by at least 90 ± 5%, mean of nine results
Procedure: as §2, §3, §4, §5, §6

[9] = system: Enterococcus faecalis ATCC 29212 biofilm; test: as above; format: cell-based; settings: polystyrene plate, 24 h exposure in MHB II; for MBEC 50: lowest concentration reducing metabolic activity by at least 50 ± 5%
Procedure: as §2, §3, §4, §5, §6

[10] = system: Staphylococus aureus ATCC 6538 biofilm; test: as above; format: cell-based, Staphylococcus aureus; settings: polystyrene plate, 24 h exposure in MHB II, resazurin; for MBEC 50: lowest concentration reducing metabolic activity by at least 50 ± 5%; for MBEC 90: lowest concentration reducing metabolic activity by at least 90 ± 5%, mean of nine results
Procedure: as §2, §3, §4, §5, §6

[11] = system: human cells (keratinocytes, erythrocytes); settings: cited from earlier work
From the text: PA was also the most difficult strain to eliminate from the surface of CL in the previous study, in which we investigated amphibian peptides and short lipopeptides containing hexadecanoic acid according to their potential application as CL solution additives. The results of performed antimicrobial assays were also very promising. However, due to high toxicity towards human keratinocytes in vitro, the ocular applications of lipopeptides with hexadecanoic acid are not worth further consideration. In contrast to those lipopeptides, the compound with two residues of decanoic aci ... || The excellent antimicrobial activity was previously reported for many lipopeptides. This, along with the relatively low production costs, has encouraged many research groups to study their antimicrobial activities and design molecules with optimal properties. C16-KK-NH2 is one of such extensively studied compounds. […] Other derivatives ...

[12] = lowest concentration giving permanent reduction of metabolic activity by at least 50 ± 5%
[13] = lowest concentration giving permanent reduction of metabolic activity by at least 90 ± 5%
[14] = lowest concentration reducing metabolic activity by at least 90 ± 5%, mean of nine results

| Compound | MBEC II 50 [1] | MBEC II 90 [1] | effect of pretreatment on biofilm after withdrawal [3] | MBEC II 50 [5] | MBEC II 90 [5] | MBEC 50 [6] | MBEC 90 [6] | MBEC 50 [7] | MBEC 50 [8] | MBEC 90 [8] | MBEC 50 [9] | MBEC 50 [10] | MBEC 90 [10] | other results |
| --- | --- | --- | --- | --- | --- | --- | --- | --- | --- | --- | --- | --- | --- | --- |
| O=C(N[C@H](CO)[C@H](O)c1ccc([N+](=O)[O-])cc1)C(Cl)Cl [Chloramphenicol] | >256 µg/mL | >256 µg/mL | significant promotion of biofilm growth | >256 µg/mL | >256 µg/mL | 32 mg/L | 256 mg/L | 8 mg/L | 4 mg/L | 128 mg/L | 32 mg/L | 128 mg/L | >256 mg/L | MBEC II 50 [2, 12]: >256 µg/mL; MBEC II 90 [2, 13]: >256 µg/mL; MBEC II 50 ([3]; lowest concentration giving permanent reduction of metabolic activity by at least 50 ± 5%, after withdrawal and additional 24 h in MHB II): 256 µg/mL; MBEC II 90 ([3]; lowest concentration giving permanent reduction of metabolic activity by at least 90 ± 5%, after withdrawal and additional 24 h in MHB II): >256 µg/mL; MBEC II 50 [4, 12]: >256 µg/mL; MBEC II 90 [4, 13]: >256 µg/mL; metabolic activity of bacteria ([6]; SE biofilm on polystyrene, 24 h exposure, 64 mg/L): ~25%; MBEC 90 [7, 14]: 16 mg/L; reduction of metabolic activities ([8]; PA biofilm on polystyrene, 24 h exposure, 32–64 mg/L): ~70%; MBEC 90 [9, 14]: >256 mg/L |
| C16-KK-NH2 | – | – | – | – | – | – | – | – | – | – | – | – | – | toxicity towards human cells [11]: high toxicity |
| neomycin (sulfate) | 8 µg/mL | 16 µg/mL | enhanced metabolism of bacteria in comparison to the positive control | 64 µg/mL | 64 µg/mL | ≤1 mg/L | 16 mg/L | 8 mg/L | 8 mg/L | 64 mg/L | 64 mg/L | 4 mg/L | 64 mg/L | concentration giving a permanent antibiofilm effect ([1]; SE biofilm on polystyrene): 16 mg/L; reduction of metabolic activity ([8]; PA biofilm on polystyrene, 24 h exposure, 32 mg/L): 75% |
